Source: article PMC10778976, “BAY-3827 and SBI-0206965: Potent AMPK Inhibitors That Paradoxically Increase Thr172 Phosphorylation” (International Journal of Molecular Sciences, 2023)

Experiments:
purified rat liver AMPK = experiment: Allosteric activation of rat liver AMPK by AMP with and without BAY-3827; type: biochemical
Source text: (§1) AMPK assays measured the transfer of radioactivity from labelled ATP to a peptide substrate, which was separated from unreacted ATP by binding to P81 paper. This assay was described previously, except that we used [γ-^33P]ATP rather than [γ-^32P]ATP. The peptide substrate was the AMARA peptide in all experiments other than one, which analyzed allosteric activation by AMP (Figure 2A), when, for technical reasons, the SAMS peptide was used instead. With purified preparations of AMPK, it was assayed in solution, but for assays in cell lysates (Figure 3D and Figure 4D), it was first immunoprecipitated using a mixture of anti-α1 and -α2 antibodies and assayed in resuspended immunoprecipitates. After the initial immunoprecipitation of lysate containing 80 µg of protein, the pellets were washed twice with 1 mL of high salt IP buffer (50 mM Tris-HCL, pH 7.4 at 4 °C, 1 M NaCl, 1 mM EDTA, 1 mM EGTA, 50 mM NaF, 5 mM Na pyrophosphate, 1 mM dithiothreitol, 0.1% (v/v) Triton X-100) and twice with 1 mL of low salt IP buffer (as above but only 150 mM NaCl), followed by a final wash in 1 mL of assay buffer (50 mM Na Hepes, pH7.4, 150 mM NaCl, 1 mM dithiothreitol, 0.02% (v/v) Brij-35). After each wash, the pellet was recovered via centrifugation (16,000× g, 3 min) and then resuspended. The final resuspended pellets from each biological replicate were divided into two aliquots (40 µg lysate protein) to provide technical replicates and assayed as above.

[1] = system: endogenous AMPK from HEK-293 cells; experiment: Protection of immunoprecipitated AMPK against inactivation by PP2Cα (PPM1A); type: biochemical, human; settings: 200 µM
Procedure: AMPK was immunoprecipitated from HEK-293 cell lysate (2.5 mg of lysate protein) using a mixture of anti-α1 and -α2 antibodies. After extensive washing as in Section 4.5, aliquots equivalent to 80 µg of lysate protein were incubated in a shaking incubator at 30 °C for 10 min in Hepes buffer (50 mM Na Hepes, pH 7.4, 150 mM NaCl, 1 mM dithiothreitol, 0.02% (w/v) Brij-35) with 50 mM MgCl2 and sufficient PPM1A to yield about 80% inactivation, in the presence or absence of 200 µM AMP or the indicated concentration of BAY-3827 or SBI-0206965 (total volume 50 µL). The reaction was terminated by adding 1 mL of IP buffer (50 mM Tris/HCl, pH 7.4 at room temperature, 150 mM NaCl, 1 mM EDTA, 1 mM EGTA, 5 mM Na pyrophosphate, 50 mM NaF, 1 mM dithiothreitol, 0.1% (v/v) Triton X-100) and, after additional washing in the same buffer and a final wash into Hepes buffer, AMPK activity was determined using kinase assays as above.

[2] = system: endogenous AMPK from HEK-293 cells; experiment: Activation of dephosphorylated immunoprecipitated AMPK by the LKB1 complex; type: biochemical, human; settings: 200 µM
Procedure: AMPK was immunoprecipitated from HEK-293 cell lysate (2.5 mg protein) using a mixture of anti-α1 and -α2 antibodies. After extensive washing, it was incubated in a shaking incubator at 30 °C for 20 min in Hepes buffer with 50 mM MgCl2 and sufficient PPM1A to yield about 90% inactivation (total volume of 250 µL). The reaction was terminated by adding 1 mL of IP buffer and, after additional washing in the same buffer, aliquots equivalent to 80 µg of lysate protein were incubated in a shaking incubator at 30 °C for 10 min in Hepes buffer with […] and 5 mM MgCl2, with or without a limiting amount of LKB1:STRADα:MO25α complex (0.5 µg) in the presence or absence of 200 µM AMP or the indicated concentration of BAY-3827 or SBI-0206965 (total volume of 50 µL). The reaction was terminated by adding 1 mL of IP buffer and, after additional washing in the same buffer and a final wash into Hepes buffer, AMPK activity was determined using kinase assays as above.

[3] = system: acetyl-CoA carboxylase (ACC, Ser80) phosphorylation in U2OS cells; experiment: ACC phosphorylation in U2OS cells (Western blot); type: cell-based, human; settings: 3 µM
Procedure: (§2) T-Rex U2OS cells carrying a Flp Recombinase Target (FRT) site were generated as described previously and grown in Dulbecco’s Modified Eagle’s Medium (DMEM) supplemented with 10% (v/v) FBS and 1% (v/v) penicillin/streptomycin.
(§3) Cells were lysed rapidly in situ on culture plates using ice-cold lysis medium containing phosphatase inhibitors, as described previously.
(§4) SDS-PAGE was performed using precast NuPAGE Tris-acetate 3–8% gradient polyacrylamide gels in Tris-acetate running buffer when analyzing ACC, GBF1, or Raptor, or NuPAGE Bis-Tris 4–12% gradient polyacrylamide gels in the MOPS buffer system (ThermoFisher Scientific, Waltham, MA, USA) for other proteins (unless stated otherwise). Proteins were transferred to nitrocellulose membranes using the iBlot 2 system (ThermoFisher Scientific). Membranes were enhanced if necessary using SuperSignal Western Blot Enhancer (ThermoFisher Scientific), then blocked for 1 h in Li-Cor Odyssey blocking buffer. The membranes were probed with the appropriate primary antibody ([…]) overnight at 4 °C. Detection was performed using secondary antibody or streptavidin probe (for total ACC) coupled to IR 680 or IR 800 dye, and the membranes were scanned using the LICOR Odyssey IR imager. Protein concentrations were determined by Coomassie Blue binding with bovine serum albumin as a standard. The cellular levels of AMP and ATP were determined via direct perchloric acid extraction from cells, with LC:MS used to estimate the levels of each nucleotide.

[4] = system: Raptor (Ser792) phosphorylation in U2OS cells; experiment: Raptor phosphorylation in U2OS cells (Western blot); type: cell-based, human; settings: 3 µM
Procedure: as §2, §3, §4

[5] = system: GBF1 (Thr1337) phosphorylation in U2OS cells; experiment: GBF1 phosphorylation in U2OS cells (Western blot); type: cell-based, human; settings: 3 µM
Procedure: as §2, §3, §4

[6] = system: human AMPK (α2β1γ1 complex); settings: control compound; cited from earlier work
AMPK = target: AMPK; design: method as in PMID 28625738; settings: read-out: Ki, competitive with ATP; cited from earlier work
71 kinases = system: 71 kinases; design: method as in PMID 17850214; settings: 1 µM, screen against 71 kinases; cited from earlier work
110 kinases = system: 110 kinases; design: method as in ref 27 = [27]; 27. International Centre for Kinase Profiling Kinase Profiling Inhibitor Database Available online: https://www.kinase-screen.mrc.ac.uk/kinase-inhibitors (accessed on 14 November 2023); settings: 10 µM, screen of 110 kinases; cited from earlier work
[7] = target: T1, “naïve” (unphosphorylated), bacterially expressed human α1β1γ1 complex (Homo sapiens, UniProt Q13131+Q9Y478); experiment: Allosteric activation of naïve (unphosphorylated) α1β1γ1 complex by MK-8722 with and without BAY-3827; type: biochemical
T1 construct: (His)6
T1 sequence (Q13131 whole entry): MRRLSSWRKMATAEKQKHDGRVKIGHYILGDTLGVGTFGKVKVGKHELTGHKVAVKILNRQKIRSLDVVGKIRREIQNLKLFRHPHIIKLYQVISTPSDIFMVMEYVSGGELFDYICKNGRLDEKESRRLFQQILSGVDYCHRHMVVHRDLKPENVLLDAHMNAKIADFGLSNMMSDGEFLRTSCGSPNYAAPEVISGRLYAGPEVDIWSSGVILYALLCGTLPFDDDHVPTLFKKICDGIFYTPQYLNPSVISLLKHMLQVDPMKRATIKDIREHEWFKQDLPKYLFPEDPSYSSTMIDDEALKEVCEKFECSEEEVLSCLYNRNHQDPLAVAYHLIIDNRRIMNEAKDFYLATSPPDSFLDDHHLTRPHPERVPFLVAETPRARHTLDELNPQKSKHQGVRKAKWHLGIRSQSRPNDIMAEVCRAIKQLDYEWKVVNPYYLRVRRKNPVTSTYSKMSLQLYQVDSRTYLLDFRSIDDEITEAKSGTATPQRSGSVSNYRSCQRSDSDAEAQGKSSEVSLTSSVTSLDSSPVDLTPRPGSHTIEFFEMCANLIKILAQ
T1 sequence (Q9Y478 2-270): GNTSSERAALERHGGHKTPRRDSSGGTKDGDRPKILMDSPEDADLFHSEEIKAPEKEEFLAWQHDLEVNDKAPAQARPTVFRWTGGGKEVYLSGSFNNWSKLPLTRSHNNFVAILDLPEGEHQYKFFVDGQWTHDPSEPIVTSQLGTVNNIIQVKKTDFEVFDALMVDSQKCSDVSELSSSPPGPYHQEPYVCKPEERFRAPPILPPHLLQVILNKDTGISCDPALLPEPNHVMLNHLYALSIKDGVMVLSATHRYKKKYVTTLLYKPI
T1 sequence (P54619 whole entry partner): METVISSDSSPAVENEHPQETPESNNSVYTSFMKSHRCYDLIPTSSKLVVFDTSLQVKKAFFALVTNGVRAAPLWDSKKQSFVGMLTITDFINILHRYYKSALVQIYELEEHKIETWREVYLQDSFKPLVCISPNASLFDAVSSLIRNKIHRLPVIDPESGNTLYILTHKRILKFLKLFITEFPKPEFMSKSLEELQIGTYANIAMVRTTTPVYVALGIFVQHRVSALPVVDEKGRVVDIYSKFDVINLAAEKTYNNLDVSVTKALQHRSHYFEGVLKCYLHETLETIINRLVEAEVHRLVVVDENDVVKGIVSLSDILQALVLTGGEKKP
Source text: as §1

[8] = in the presence of 30 nM BAY-3827

For `Nc1ncnc2c1ncn2[C@@H]1O[C@H](COP(=O)(O)O)[C@@H](O)[C@H]1O` [AMP], the “maximal activation by AMP” value (purified rat liver AMPK; [8]) was 2.7 fold, the EC50 (purified rat liver AMPK; without BAY-3827) was 5.9 µM and the “maximal activation by AMP” value (purified rat liver AMPK; without BAY-3827) was 2.9 fold. For the same compound, the IC50 (purified rat liver AMPK; without BAY-3827, read-out: IC50 for inhibition by high AMP) was 1800 µM, the “protection against inactivation by PPM1A” value [1] was “substantial protection” and the “promotion of activation by LKB1” value [2] was over 2 fold.
With `CC1=C(C#N)C(c2ccc3c(c2)c(NC(=O)c2ccccc2C)nn3C)C(C#N)=C(C)N1` [BAY-974] the “elimination of MK-8722-stimulated ACC phosphorylation” value [3] was “not”, the “elimination of MK-8722-stimulated Raptor phosphorylation” value [4] was “not” and the “elimination of MK-8722-stimulated GBF1 phosphorylation” value [5] was “not”. For the same compound, the “inhibition of AMPK” value [6] was “did not inhibit”.
For `CN(C)S(=O)(=O)c1ccc2c(c1)/C(=C/c1cc3c([nH]1)CCCC3)C(=O)N2` [SU6656], the Ki (AMPK) is given as 0.17 µM.
In the case of `c1cc(-c2cnn3cc(-c4ccc(OCCN5CCCCC5)cc4)cnc23)ccn1` [compound C, dorsomorphin], the “number of kinases inhibited to a greater extent than AMPK” value (71 kinases) is listed as 9 and the “number of kinases inhibited to a greater extent than AMPK” value (110 kinases) is listed as “no less than 30”.
For MK-8722, the “maximal activation by MK-8722” value [7, 8] was 6.7 fold, the EC50 ([7]; without BAY-3827) was 1.1 µM and the “maximal activation by MK-8722” value ([7]; without BAY-3827) was 11 fold.
